# According to patent publication US7863293B2, “CXCR4 chemokine receptor binding compounds” (Genzyme Corporation, priority 2003, dated 2011):
# Read-outs that look alike come from different tables or passages of the source.
# Tests used:
# [1] = test system: CFU-GM, BFU-E and CFU-GEMM progenitor cells; settings: 80 μg/kg s.c.; for Fold change compared to T = 0, BFU-E, methylcellulose culture, MEAN / Fold change compared to T = 0, CFU-GEMM, methylcellulose culture, MEAN / Fold change compared to T = 0, CFU-GM, methylcellulose culture, MEAN: average of 5 donors
# Description: (§1) Five healthy human volunteers having initial white blood cell counts of 4,500-7,500 cells/mm^3 were used in the study. […] Blood samples were obtained via catheter prior to the dose, and at various times up to 24 hours after dosing.
# (§2) All progenitor cell results are based on the scoring of 3 culture plates per assay per point.
# (§3) For the progenitor cell numbers and cycling status, the numbers of CFU-GM, BFU-E and CFU-GEMM in methylcellulose cultures by stimulation of the cells with 1 Unit (U)/ml recombinant human (rhu) erythropoietin, 100 U/ml rhu granulocyte-macrophage colony stimulating factor (GM-CSF), 100 U/ml rhu interleukin-3 (IL-3) and 50 ng/ml rhu steel factor (SLF=stem cell factor (SCF)). The CFU-GM were also evaluated in agar cultures stimulated with 100 U/ml rhu GM-CSF and 50 ng/ml rhu SLF. For both types of assays, colonies were scored after 14 day incubation in a humidified atmosphere with 5% CO2 and lowered (5%) O2 tension. Cell cycling status of progenitors was measured using a high specific activity tritiated thymidine kill technique as previously described (Broxmeyer, H. E., et al., Exp. Hematol. (1989) 17:455-459).
# CFU-GM progenitor cells = settings: average of 5 donors, 80 μg/kg s.c.
# Description: as §1, §2, §3
# [2] = test system: progenitor cells (CFU-GM, BFU-E, CFU-GEMM) per mL of blood; settings: for Absolute Number Progenitors Per ML Blood, BFU-E / Absolute Number Progenitors Per ML Blood, CFU-GEMM / Absolute Number Progenitors Per ML Blood, CFU-GM: 1 hour post administration; for Absolute Progenitors Per ML Blood, BFU-E / Absolute Progenitors Per ML Blood, CFU-GEMM / Absolute Progenitors Per ML Blood, CFU-GM: 5 mg/Kg single s.c.; for Absolute Progenitors Per ML Blood, BFU-E / Absolute Progenitors Per ML Blood, CFU-GEMM / Absolute Progenitors Per ML Blood, CFU-GM / Fold Change Compared to Time 0, progenitors BFU-E / Fold Change Compared to Time 0, progenitors CFU-GEMM / Fold Change Compared to Time 0, progenitors GM: methylcellulose culture; for Fold Change Compared to Time 0, progenitors BFU-E / Fold Change Compared to Time 0, progenitors CFU-GEMM / Fold Change Compared to Time 0, progenitors GM: mice
# Description: Progenitors were stimulated to form colonies in vitro with the combination of 1 U/ml rhu Epo, 50 ng/ml rhu SLF, 5% ^Vol/Vol pokeweed mitogen mouse spleen cell conditioned medium (PWMSCM), and 0.1 mM hemin. Plates were scored 7 days after incubation.
# white blood cell count = settings: all patients, i.v. 10-80 μg/kg; 5-10 hours after administration
# Description: Eleven human patients having initial white blood cell counts of 4,000-6,500 cells/mm^3 were used in the study. […] Aliquots from this stock solution were added to 50-ml bags of 0.9% saline for intravenous injection in amounts to achieve the desired dosage levels (10 μg/kg-80 μg/kg).
# The subjects described in this example already contained an indwelling peripheral intravenous catheter. […] Blood samples were obtained prior to the dose, and at various times up to 24 hours after dose administration.
# Three patients were administered dosages of 10 μg/kg (open circles); 3 patients were administered dosages of 20 μg/kg (solid circles); 3 patients were administered 40 μg/kg (open triangles); and 2 patients were administered 80 μg/kg (closed triangles).
# white blood cells = settings: human volunteers; 80 μg/kg s.c.
# Description: as §1
# The blood samples were evaluated for total white blood cells, CD34 positive progenitor cells (via FACS analysis) as a percentage of total white blood cells, as well as the absolute numbers per mL and cycling status of granulocyte macrophage (CFU-GM), erythroid (BFU-E), and multipotential (CFU-GEMM) progenitor cells.
# WBC counts = settings: HIV-infected patients; infusion 2.5 or 5.0 μg/kg/hr
# [3] = test system: WBC and circulating CD34+ progenitor/stem cells; settings: Phase 1 study, single dose of 80 μg/kg; cited from earlier work
# bone marrow stem cells = settings: rats, coronary ligation; given within hours after cardiac ischemia, with or without rhG-CSF
# Description: Adult rats are anesthetized and a thoracotomy is performed. The descending branch of the left coronary artery is ligated and not reperfused. […] Control rats are not treated with the reagents. The animals are monitored at one-week intervals by echocardiography and MRI. […] On the day of sacrifice, the hemodynamic functions are analyzed for left ventricle-end diastolic pressure, left ventricle-developed pressure and the rate of rise and fall of left ventricle pressure. The heart is then arrested in diastole and perfused via the abdominal aorta to flush residual blood from the vascular network of the myocardium. […] Several slices are made through the fixed heart and these are embedded in paraffin and sections. The sections are stained and analyzed by light microscopy to determine the size of the infarct in the treated and control animals. […] The immunohistochemical analysis involves the identification of transcription factors and surface markers expressed in early stages of myocyte development.
smiles,measurement,setting,value
"c1cc(CN2CCCNCCNCCCNCC2)ccc1CN1CCCNCCNCCCNCC1 [AMD3100, 1,1′-[1,4-phenylene-bis(methylene)]-bis-1,4,8,11-tetraazacyclotetradecane]","fold change from T=0, progenitors BFU-E, methylcellulose culture","[1]; P2, T = 1 hour",1.43 fold
same,"Absolute # of Progenitors per ML, BFU-E","[1]; P4, T = 9 hours",1343 per ML
same,"Fold change compared to T = 0, BFU-E, methylcellulose culture, MEAN",[1]; T = 1 hour,1.99 fold
same,"Fold change compared to T = 0, CFU-GEMM, methylcellulose culture, MEAN",[1]; T = 1 hour,2.32 fold
same,"Fold change compared to T = 0, CFU-GM, methylcellulose culture, MEAN",[1]; T = 1 hour,4.77 fold
same,"Fold change compared to T = 0, BFU-E, methylcellulose culture, MEAN",[1]; T = 3 hours,3.21 fold
same,"Fold change compared to T = 0, CFU-GEMM, methylcellulose culture, MEAN",[1]; T = 3 hours,4.33 fold
same,"Fold change compared to T = 0, CFU-GM, methylcellulose culture, MEAN",[1]; T = 3 hours,13.66 fold
same,"Fold change compared to T = 0, BFU-E, methylcellulose culture, MEAN",[1]; T = 6 hours,6.01 fold
same,"Fold change compared to T = 0, CFU-GEMM, methylcellulose culture, MEAN",[1]; T = 6 hours,10.07 fold
same,"Fold change compared to T = 0, CFU-GM, methylcellulose culture, MEAN",[1]; T = 6 hours,21.71 fold
same,"Fold change compared to T = 0, BFU-E, methylcellulose culture, MEAN",[1]; T = 9 hours,4.34 fold
same,"Fold change compared to T = 0, CFU-GEMM, methylcellulose culture, MEAN",[1]; T = 9 hours,5.25 fold
same,"Fold change compared to T = 0, CFU-GM, methylcellulose culture, MEAN",[1]; T = 9 hours,10.47 fold
same,"Fold change compared to T = 0, BFU-E, methylcellulose culture, MEAN",[1]; T = 24 hours,1.26 fold
same,"Fold change compared to T = 0, CFU-GEMM, methylcellulose culture, MEAN",[1]; T = 24 hours,1.53 fold
same,"Fold change compared to T = 0, CFU-GM, methylcellulose culture, MEAN",[1]; T = 24 hours,1.56 fold
same,"Fold change compared to T = 0, CFU-GM, agar culture, MEAN",CFU-GM progenitor cells; T = 1 hour,2.81 fold
same,"Fold change compared to T = 0, CFU-GM, agar culture, MEAN",CFU-GM progenitor cells; T = 3 hours,8.54 fold
same,"Fold change compared to T = 0, CFU-GM, agar culture, MEAN",CFU-GM progenitor cells; T = 6 hours,17.93 fold
same,"Fold change compared to T = 0, CFU-GM, agar culture, MEAN",CFU-GM progenitor cells; T = 9 hours,10.25 fold
same,"Fold change compared to T = 0, CFU-GM, agar culture, MEAN",CFU-GM progenitor cells; T = 24 hours,2.08 fold
same,"Absolute Number Progenitors Per ML Blood, BFU-E",[2]; 1 mg/kg single s.c.,62 per ML blood
same,"Absolute Number Progenitors Per ML Blood, CFU-GEMM",[2]; 1 mg/kg single s.c.,27.1 per ML blood
same,"Absolute Number Progenitors Per ML Blood, CFU-GM",[2]; 1 mg/kg single s.c.,424 per ML blood
same,"Absolute Number Progenitors Per ML Blood, BFU-E",[2]; 2.5 mg/kg single s.c.,98.9 per ML blood
same,"Absolute Number Progenitors Per ML Blood, CFU-GEMM",[2]; 2.5 mg/kg single s.c.,70.6 per ML blood
same,"Absolute Number Progenitors Per ML Blood, CFU-GM",[2]; 2.5 mg/kg single s.c.,687.6 per ML blood
same,"Absolute Progenitors Per ML Blood, BFU-E",[2]; 15″,134.5 per ML blood
same,"Absolute Progenitors Per ML Blood, CFU-GEMM",[2]; 15″,90.4 per ML blood
same,"Absolute Progenitors Per ML Blood, CFU-GM",[2]; 15″,791.6 per ML blood
same,"Absolute Progenitors Per ML Blood, BFU-E",[2]; 30″,209.3 per ML blood
same,"Absolute Progenitors Per ML Blood, CFU-GEMM",[2]; 30″,113.5 per ML blood
same,"Absolute Progenitors Per ML Blood, CFU-GM",[2]; 30″,1805.5 per ML blood
same,"Absolute Progenitors Per ML Blood, BFU-E",[2]; 120″,102.3 per ML blood
same,"Absolute Progenitors Per ML Blood, CFU-GEMM",[2]; 120″,47.6 per ML blood
same,"Absolute Progenitors Per ML Blood, CFU-GM",[2]; 120″,828.7 per ML blood
same,"Absolute Number Progenitors Per ML Blood, BFU-E",[2]; 5 mg/kg single s.c.,92.8 per ML blood
same,"Absolute Number Progenitors Per ML Blood, CFU-GEMM",[2]; 5 mg/kg single s.c.,69.5 per ML blood
same,"Absolute Number Progenitors Per ML Blood, CFU-GM",[2]; 5 mg/kg single s.c.,608.4 per ML blood
same,"Absolute Number Progenitors Per ML Blood, BFU-E",[2]; 10 mg/kg single s.c.,120.5 per ML blood
same,"Absolute Number Progenitors Per ML Blood, CFU-GEMM",[2]; 10 mg/kg single s.c.,79.8 per ML blood
same,"Absolute Number Progenitors Per ML Blood, CFU-GM",[2]; 10 mg/kg single s.c.,825.6 per ML blood
same,"Fold Change Compared to Time 0, progenitors BFU-E",[2]; time 2′,2.07 fold
same,"Fold Change Compared to Time 0, progenitors CFU-GEMM",[2]; time 2′,1.85 fold
same,"Fold Change Compared to Time 0, progenitors GM",[2]; time 2′,2.86 fold
same,"Fold Change Compared to Time 0, progenitors BFU-E",[2]; time 15″,2.72 fold
same,"Fold Change Compared to Time 0, progenitors CFU-GEMM",[2]; time 15″,3.51 fold
same,"Fold Change Compared to Time 0, progenitors GM",[2]; time 15″,2.73 fold
same,"Fold Change Compared to Time 0, progenitors BFU-E",[2]; time 30″,4.24 fold
same,"Fold Change Compared to Time 0, progenitors CFU-GEMM",[2]; time 30″,4.41 fold
same,"Fold Change Compared to Time 0, progenitors GM",[2]; time 30″,6.23 fold
same,change in white blood cell count,white blood cell count,marked increase in white blood cell count
same,time post-administration at which elevation of white blood cell count maximized,white blood cells,6 h
c1cc(CN2CCCNCCNCCCNCC2)ccc1CN1CCCNCCNCCCNCC1 [AMD-3100],time after discontinuation of the infusion at which WBC counts returned to baseline,WBC counts,7 days
same,WBC count,[3],"17,000 /μl"
same,"effect on cardiac remodeling, scar formation and myocardium",bone marrow stem cells,block to cardiac remodeling and scar formation
